# Values quoted from earlier work in patent US20210363254A1, “PHARMACEUTICAL COMBINATIONS” (Novartis AG, priority 2018, published 2021).
# System: renal cell carcinoma (RCC)
# Conditions: RCC patients beyond first-line therapy; cited from earlier work
substance,measurement,value
Nivolumab: inhibitor of the PD-1/PD-L1 interaction approved for use in RCC,OS benefit compared with everolimus,5.4 months
same,median OS,25 months
